#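 Method: 48-hour compound exposure of cells in 96-well plates, five concentrations, linear interpolation of endpoints. GI50 is the concentration that inhibits growth by half.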 Active and inactive are the calls of the source. Cut-off read from the data, not from the text of the source: active = GI50 up to about 1.1 µM and inactive = higher.
# What was measured:
# Assay in all cases: inhibition of tumour cell growth, NCI panel, 48 h
# HCT-15 = tested on: HCT-15
# NCI-H522 = tested on: NCI-H522
# SNB-75 = tested on: SNB-75
# SNB-19 = tested on: SNB-19
# MDA-N = tested on: MDA-N
# PC-3 = tested on: PC-3
# BT-549 = tested on: BT-549
# OVCAR-3 = tested on: OVCAR-3
# A549 = tested on: A549
# SF-539 = tested on: SF-539
# SF-268 = tested on: SF-268
# Hs-578T = tested on: Hs-578T
# MDA-MB-435 = tested on: MDA-MB-435
# NCI-H460 = tested on: NCI-H460
# NCI/ADR-RES = tested on: NCI/ADR-RES
# KM12 = tested on: KM12
# CCRF-CEM = tested on: CCRF-CEM
# A498 = tested on: A498
# RXF 393 = tested on: RXF 393
SMILES,GI50 (HCT-15) [µM],GI50 (NCI-H522),GI50 (SNB-75),GI50 (SNB-19),GI50 (MDA-N),GI50 (PC-3),GI50 (BT-549),GI50 (OVCAR-3),GI50 (A549),GI50 (SF-539),GI50 (SF-268),GI50 (Hs-578T),GI50 (MDA-MB-435),GI50 (NCI-H460),GI50 (NCI/ADR-RES),GI50 (KM12),GI50 (CCRF-CEM),GI50 (A498),GI50 (RXF 393)
COC(=O)c1cc(NC2OCC(OC(C)=O)C(OC(C)=O)C2OC(C)=O)nc(SC)c1C(=O)OC (centres undefined),> 100,> 100 µM (inactive),49.9 µM (inactive),> 100 µM (inactive),> 100 µM (inactive),> 100 µM (inactive),> 100 µM (inactive),> 100 µM (inactive),> 100 µM (inactive),> 100 µM (inactive),> 100 µM (inactive),> 100 µM (inactive),> 100 µM (inactive),> 100 µM (inactive),> 100 µM (inactive),> 100 µM (inactive),> 100 µM (inactive),,
CC(C)[Si](OC1=C(C(=O)N(C)c2ccccc2Cl)CCCCC1)(C(C)C)C(C)C,> 100,97.1 µM (inactive),> 100 µM (inactive),> 100 µM (inactive),> 100 µM (inactive),,> 100 µM (inactive),> 100 µM (inactive),> 100 µM (inactive),> 100 µM (inactive),> 100 µM (inactive),,> 100 µM (inactive),> 100 µM (inactive),> 100 µM (inactive),> 100 µM (inactive),,> 100 µM (inactive),> 100 µM (inactive)
COC(=S)OC1CC(n2cnc3c(N)ncnc32)OC1CO[Si](C)(C)C(C)(C)C (centres undefined),16.8,,,33 µM (inactive),18.5 µM (inactive),12.1 µM (inactive),21.9 µM (inactive),15.3 µM (inactive),,,,,17 µM (inactive),20.3 µM (inactive),22.4 µM (inactive),23.7 µM (inactive),10.1 µM (inactive),22 µM (inactive),12.1 µM (inactive)
COc1ccc(OC)c(SC(CC(=O)c2ccccc2)c2ccccc2)c1 (centres undefined),17.5,14.6 µM (inactive),18.4 µM (inactive),14.2 µM (inactive),,14.8 µM (inactive),,4.69 µM (inactive),27.9 µM (inactive),4.32 µM (inactive),19.1 µM (inactive),28.4 µM (inactive),13 µM (inactive),37.1 µM (inactive),17.7 µM (inactive),4.06 µM (inactive),5.08 µM (inactive),,15.8 µM (inactive)
CC(C)(C)[Si](C)(C)OCC1OC(n2cnc3c(N)ncnc32)CC1OS(C)(=O)=O (centres undefined),> 100,,,> 100 µM (inactive),> 100 µM (inactive),> 100 µM (inactive),54 µM (inactive),27.4 µM (inactive),,,,,> 100 µM (inactive),> 100 µM (inactive),> 100 µM (inactive),> 100 µM (inactive),> 100 µM (inactive),43 µM (inactive),25.6 µM (inactive)
CC#CS(=O)(=O)c1ccccc1,2.88,1.62 µM (inactive),3.01 µM (inactive),14.2 µM (inactive),,12.1 µM (inactive),8.45 µM (inactive),1.63 µM (inactive),16.1 µM (inactive),4.08 µM (inactive),15.9 µM (inactive),17.2 µM (inactive),10.9 µM (inactive),17.5 µM (inactive),10.4 µM (inactive),,,15.4 µM (inactive),14.2 µM (inactive)
O=C1OC(c2ccccc2)=N/C1=C\c1ccc(Oc2ccc(Cl)c(Cl)c2)cc1,43.2,30.1 µM (inactive),,35.5 µM (inactive),,,,,43.1 µM (inactive),24.2 µM (inactive),23.1 µM (inactive),,,71.4 µM (inactive),,50 µM (inactive),23.1 µM (inactive),> 100 µM (inactive),25.8 µM (inactive)
COc1cccc(C2C(C(=O)O)=C(CO)Oc3cc4c(cc32)OCO4)c1OC (centres undefined),> 100,> 100 µM (inactive),> 100 µM (inactive),> 100 µM (inactive),,,,> 100 µM (inactive),,> 100 µM (inactive),> 100 µM (inactive),,,> 100 µM (inactive),,,> 100 µM (inactive),> 100 µM (inactive),
O=C(Nc1ccccn1)/C(=C\C(=O)c1ccc(Cl)cc1)Nc1ccccc1,> 10,,5.68 µM (inactive),,> 10 µM (inactive),> 10 µM (inactive),,,> 10 µM (inactive),,> 10 µM (inactive),,> 10 µM (inactive),,,> 10 µM (inactive),> 10 µM (inactive),,> 10 µM (inactive)
CN1c2ccccc2C(=O)NC12CCN(CCCC(=O)c1ccc(F)cc1)CC2,> 100,26.7 µM (inactive),71.6 µM (inactive),,88.7 µM (inactive),78.2 µM (inactive),58.3 µM (inactive),48.9 µM (inactive),> 100 µM (inactive),50.6 µM (inactive),17.8 µM (inactive),> 100 µM (inactive),56.8 µM (inactive),,> 100 µM (inactive),> 100 µM (inactive),84.7 µM (inactive),,62.8 µM (inactive)
O=c1oc2ccccc2c(O)c1C(C/C(CCN1CCCC1)=N\Nc1ccccc1)c1ccccc1 (centres undefined),52.2,51.2 µM (inactive),> 100 µM (inactive),69.5 µM (inactive),,,,53.5 µM (inactive),> 100 µM (inactive),88.9 µM (inactive),> 100 µM (inactive),,,70.8 µM (inactive),,60.5 µM (inactive),27.9 µM (inactive),> 100 µM (inactive),32.7 µM (inactive)
COC(=O)C1=C(C)N2CCOC2(C)C(C(=O)OC)C1c1ccc[nH]1 (centres undefined),,,18.7 µM (inactive),> 100 µM (inactive),,,,> 100 µM (inactive),> 100 µM (inactive),> 100 µM (inactive),> 100 µM (inactive),,,> 100 µM (inactive),,> 100 µM (inactive),> 100 µM (inactive),,> 100 µM (inactive)
NC(CCCCCCCCCCP(=O)(O)O)C(=O)O (centres undefined),> 100,85.5 µM (inactive),7.73 µM (inactive),> 100 µM (inactive),> 100 µM (inactive),> 100 µM (inactive),,> 100 µM (inactive),> 100 µM (inactive),> 100 µM (inactive),> 10 µM (inactive),> 100 µM (inactive),> 100 µM (inactive),> 100 µM (inactive),> 100 µM (inactive),> 100 µM (inactive),> 100 µM (inactive),,> 100 µM (inactive)
COc1cccc(N(CN2C(=O)CCC2C(=O)O)C(C)=O)c1 (centres undefined),> 100,> 100 µM (inactive),> 100 µM (inactive),> 100 µM (inactive),> 100 µM (inactive),> 100 µM (inactive),,> 100 µM (inactive),> 100 µM (inactive),> 100 µM (inactive),> 100 µM (inactive),> 100 µM (inactive),> 100 µM (inactive),> 100 µM (inactive),> 100 µM (inactive),> 100 µM (inactive),,> 100 µM (inactive),> 100 µM (inactive)
CC1=C(C)[C@@]2(C)O[C@@]2(C)O[C@@]2(C)O[C@@]12C,> 100,> 100 µM (inactive),> 100 µM (inactive),> 100 µM (inactive),> 100 µM (inactive),> 100 µM (inactive),> 100 µM (inactive),,> 100 µM (inactive),,> 100 µM (inactive),> 100 µM (inactive),> 100 µM (inactive),,> 100 µM (inactive),> 100 µM (inactive),,> 100 µM (inactive),
Cc1ccc2oc3c(ccc(=O)n3C)c(=O)c2c1,> 100,> 100 µM (inactive),> 100 µM (inactive),> 100 µM (inactive),> 100 µM (inactive),> 100 µM (inactive),,> 100 µM (inactive),> 100 µM (inactive),> 100 µM (inactive),> 100 µM (inactive),> 100 µM (inactive),> 100 µM (inactive),> 100 µM (inactive),> 100 µM (inactive),> 100 µM (inactive),> 100 µM (inactive),> 100 µM (inactive),> 100 µM (inactive)
C1CC2=C(C1)[Se]C(=C1Sc3nsnc3S1)[Se]2,48.3,> 100 µM (inactive),> 100 µM (inactive),> 100 µM (inactive),21.7 µM (inactive),> 100 µM (inactive),> 100 µM (inactive),> 100 µM (inactive),> 100 µM (inactive),> 100 µM (inactive),> 100 µM (inactive),> 100 µM (inactive),39 µM (inactive),> 100 µM (inactive),> 100 µM (inactive),> 100 µM (inactive),> 100 µM (inactive),,
Cc1cc(S(=O)(=O)Nc2nc(Nc3ccccc3)n[nH]2)c(SSc2cc(Cl)c(C)cc2S(=O)(=O)Nc2nc(Nc3ccccc3)n[nH]2)cc1Cl,> 100,,> 100 µM (inactive),94.8 µM (inactive),> 100 µM (inactive),> 100 µM (inactive),> 100 µM (inactive),> 100 µM (inactive),> 100 µM (inactive),> 10 µM (inactive),86.7 µM (inactive),86.1 µM (inactive),> 100 µM (inactive),> 100 µM (inactive),> 100 µM (inactive),> 100 µM (inactive),43.8 µM (inactive),,> 10 µM (inactive)
CCOC(=O)Cn1c(=O)c2cc(C)cc3c(Cl)nc4c(OC)c(OC)cc1c4c32,> 100,> 100 µM (inactive),30.8 µM (inactive),> 100 µM (inactive),> 100 µM (inactive),> 100 µM (inactive),56.6 µM (inactive),> 100 µM (inactive),> 100 µM (inactive),> 100 µM (inactive),35.6 µM (inactive),31.8 µM (inactive),> 100 µM (inactive),> 100 µM (inactive),> 100 µM (inactive),> 100 µM (inactive),> 100 µM (inactive),,51.1 µM (inactive)

# — ChEMBL document CHEMBL1201862, “PubChem BioAssay data set” (2004)
